Test results as given in PMC10206600, “Two Distinct Thermodynamic Gradients for Cellular Metalation of Vitamin B12” (JACS Au, 2023).

Target: T1, CobNST (Rhodobacter capsulatus, UniProt D5AV09)
T1 construct: gene cobN; recombinant from E. coli BL21(DE3) pLysS; N-terminal 6xHis-tag and thrombin site on CobN (pET14b) and CobS (pET3a), CobT untagged, CobST copurified; 13 subunits; with Aerobic cobaltochelatase subunit CobS; Aerobic cobaltochelatase subunit CobT
T1 sequence (D5AV09 1-1085): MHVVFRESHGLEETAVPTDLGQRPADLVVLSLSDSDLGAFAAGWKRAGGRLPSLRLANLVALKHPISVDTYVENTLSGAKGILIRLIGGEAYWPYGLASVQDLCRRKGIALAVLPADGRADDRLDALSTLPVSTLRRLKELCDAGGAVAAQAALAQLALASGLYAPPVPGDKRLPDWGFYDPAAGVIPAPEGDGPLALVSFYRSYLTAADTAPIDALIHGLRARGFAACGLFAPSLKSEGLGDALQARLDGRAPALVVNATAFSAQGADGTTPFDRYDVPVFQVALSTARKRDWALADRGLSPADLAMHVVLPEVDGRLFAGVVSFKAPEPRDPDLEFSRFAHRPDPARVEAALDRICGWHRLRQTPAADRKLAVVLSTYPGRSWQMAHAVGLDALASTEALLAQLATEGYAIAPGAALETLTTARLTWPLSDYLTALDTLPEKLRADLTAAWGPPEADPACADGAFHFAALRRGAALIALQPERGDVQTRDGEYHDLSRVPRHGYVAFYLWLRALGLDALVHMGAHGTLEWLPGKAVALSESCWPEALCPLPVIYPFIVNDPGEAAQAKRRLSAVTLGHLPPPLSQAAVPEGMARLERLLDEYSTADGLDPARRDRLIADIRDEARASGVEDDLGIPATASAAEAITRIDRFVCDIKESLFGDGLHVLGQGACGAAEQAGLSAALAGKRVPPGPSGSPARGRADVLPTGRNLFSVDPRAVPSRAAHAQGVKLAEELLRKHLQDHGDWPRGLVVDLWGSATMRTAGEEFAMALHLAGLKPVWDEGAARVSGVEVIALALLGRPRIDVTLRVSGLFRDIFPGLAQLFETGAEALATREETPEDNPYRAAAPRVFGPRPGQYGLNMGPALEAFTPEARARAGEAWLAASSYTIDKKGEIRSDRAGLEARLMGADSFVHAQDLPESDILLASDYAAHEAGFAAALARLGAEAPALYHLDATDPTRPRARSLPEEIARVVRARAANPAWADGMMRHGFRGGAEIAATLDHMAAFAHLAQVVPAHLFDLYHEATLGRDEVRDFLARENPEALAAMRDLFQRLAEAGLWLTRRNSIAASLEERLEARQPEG
T1 sequence (D5AQ14 1-324 partner): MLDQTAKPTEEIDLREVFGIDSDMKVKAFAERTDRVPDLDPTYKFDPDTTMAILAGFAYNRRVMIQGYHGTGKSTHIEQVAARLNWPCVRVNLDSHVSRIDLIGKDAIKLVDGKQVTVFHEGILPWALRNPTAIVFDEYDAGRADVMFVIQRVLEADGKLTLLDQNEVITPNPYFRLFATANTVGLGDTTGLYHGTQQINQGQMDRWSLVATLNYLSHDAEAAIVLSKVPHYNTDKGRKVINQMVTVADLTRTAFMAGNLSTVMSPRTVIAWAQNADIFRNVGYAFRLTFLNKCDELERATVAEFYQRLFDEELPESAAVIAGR
T1 sequence (D5AQ13 1-624 partner): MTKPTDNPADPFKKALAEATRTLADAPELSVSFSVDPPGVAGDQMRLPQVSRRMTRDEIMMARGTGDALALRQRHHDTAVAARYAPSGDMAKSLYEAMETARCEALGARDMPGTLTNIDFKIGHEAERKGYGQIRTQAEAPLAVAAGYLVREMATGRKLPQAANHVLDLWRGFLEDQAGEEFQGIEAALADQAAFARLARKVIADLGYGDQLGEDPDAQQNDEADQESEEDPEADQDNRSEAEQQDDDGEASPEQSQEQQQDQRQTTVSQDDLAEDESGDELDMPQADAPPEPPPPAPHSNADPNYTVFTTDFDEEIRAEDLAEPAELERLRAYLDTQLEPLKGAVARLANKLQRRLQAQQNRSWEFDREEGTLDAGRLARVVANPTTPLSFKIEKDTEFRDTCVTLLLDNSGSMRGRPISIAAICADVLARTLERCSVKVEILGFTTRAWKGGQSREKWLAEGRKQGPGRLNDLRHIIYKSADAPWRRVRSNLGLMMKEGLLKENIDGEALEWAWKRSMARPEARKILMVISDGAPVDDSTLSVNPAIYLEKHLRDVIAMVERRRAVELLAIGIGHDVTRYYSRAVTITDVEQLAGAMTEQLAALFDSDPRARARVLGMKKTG
Test: UV-visible absorbance at […] nm, Co(II) chelation
Assay type: biochemical
Conditions: 10 uM HBAD, 100 uM total Co(II), 10 mM MgCl2, 5 mM ATP, 50 mM Hepes pH 7.0, 100 mM NaCl, 20-25 C, anaerobic

C/C1=C2N=C(/C=C3\N/C(=C(/C)C4=N[C@@](C)([C@@H]5N=C1[C@](C)(CCC(=O)O)[C@H]5CC(=O)O)[C@@](C)(CC(N)=O)[C@@H]4CCC(=O)O)[C@@](C)(CC(N)=O)[C@@H]3CCC(=O)O)C(C)(C)[C@@H]/2CCC(=O)O [HBAD, hydrogenobyrinic acid a,c-diamide]
UV-visible absorbance at 330 nm, Co(II) chelation: Metalation of HBAD to form cobyrinic acid a,c-diamide (CBAD) was followed by changes in the UV–visible absorbance
